Measured values from US20170349532A1, “CATIONIC LIPID” (Kyowa Hakko Kirin Co., Ltd., priority 2011, published 2017).

Assay: Average particle diameter of preparation (Zetasizer Nano ZS)
Format: physicochemical
Conditions: Comparative Examples 1 to 8, prepared as Example 118 with apo-b siRNA
Excerpt: Preparations were produced using the compounds obtained in Examples 1 to 117, as follows.
APO-B siRNA was used as the nucleic acid. APO-B siRNA suppresses expression of an apolipoprotein-B (hereinafter, “apo-b”) gene and has a sense strand with the base sequence 5′-GmUCAmUCACACmUGAAmUACCAAmU-3′ (the sugars attached to the bases appended with m are 2′-O-methyl-substituted riboses), and an antisense strand with the base sequence 5′-[…]-3′ (the 5′-end is phosphorylated). The sense strand and the antisense strand were obtained from Nippon EGT, GeneDesign, Inc., Invitrogen or Hokkaido System Science Co., Ltd., and annealed to prepare the nucleic acid (hereinafter, “apo-b siRNA”).
A solution comprising the constituent components was prepared by dissolving each of the weighed samples in 90 vol % ethanol in 8.947/1.059/5.708/13.697 mmol/L [compounds 1 to 117 obtained in Examples 1 to 117/sodium 1,2-dimyristoyl-sn-glycero-3-phosphoethanolamine-N-(methoxy(polyethylene glycol)-2000) (PEG-DMPE Na,N-(carbonylmethoxypolyethylene glycol 2000)-1,2-dimyristoyl-sn-glycero-3-phosphoethanolamine sodium salt, NOF Corporation)/distearoylphosphatidyl choline (DSPC, 1,2-distearoyl-sn-glycero-3-phosphocholine, NOF Corporation)/cholesterol (Avanti Polar Lipids)]. Separately, apo-b siRNA/distilled water (24 mg/mL) was diluted with a Tris-EDTA buffer (200 mM Tris-HCl, 20 mM EDTA, Invitrogen) and a 20 mM citric acid buffer (pH 5.0) to prepare a 1.5 mg/mL apo-b siRNA aqueous solution (2 mM Tris-EDTA/20 mM citric acid buffer, pH 5.0).
The resulting lipid solution was heated to 37° C., and a 100-μL portion was transferred to a preparation container. The apo-b siRNA aqueous solution (100 μL) was then added thereto while being stirred. Then, a 20 mM citric acid buffer (containing 300 mM NaCl, pH 6.0; 200 μL) was added to the lipid nucleic acid mixed suspension (200 μL) while being stirred. The siRNA concentration was brought to 10 μM by dropping a Dulbecco phosphate buffer (DPBS, Invitrogen; 662 μL), and preparations (compositions comprising compounds 1 to 117 and the nucleic acid) were obtained.
The average particle diameter of the complex between the cationic lipis and the nucleic acid in each preparation was measured with a particle diameter measurement device (Malvern; Zetasizer Nano ZS).

SMILES | average particle diameter of the complex between the cationic lipis and the nucleic acid in the preparation
CCCCC/C=C\C/C=C\CCCCCCCC(=O)OCCN(C)CCOC(=O)CCCCCCC/C=C\C/C=C\CCCCC [Compound A-5, N-Methyl-N,N-bis(2-((9Z,12Z)-1-oxooctadec-9,12-dienyloxy)ethyl)amine, reference compound] | 136.4 nm
CCCCCCCC/C=C\CCCCCCCC(=O)OCCN(C)CCOC(=O)CCCCCCC/C=C\CCCCCCCC [Compound A-6, N-Methyl-N,N-bis(2-((Z)-1-oxooctadec-9-enyloxy)ethyl)amine, reference compound] | 139.5 nm

Same assay, conditions: average particle diameter of cationic lipid/nucleic acid complex; Example 118 preparation: compound/PEG-DMPE Na/DSPC/cholesterol with apo-b siRNA

SMILES | Particle diameter of Preparetion
CCCCCCCCCCCCCCCCOCCNCCOCCCCCCCCCCCCCCCC [Compound 70, bis(2-(Hexadecyloxy)ethyl)amine] | 145.6 nm
CCCCCCCC/C=C\CCCCCCCCOC[C@@H]1CN(C)C[C@H]1COCCCCCCCC/C=C\CCCCCCCC (relative stereo) [Compound 106, trans-1-Methyl-3,4-bis(((Z)-octadec-9-enyloxy)methyl)pyrrolidine] | 139.2 nm
CCCCCCCC/C=C\CCCCCCCC(=O)OCCN(CCOC(=O)CCCCCCC/C=C\CCCCCCCC)CC(O)CO (stereo not drawn) [Compound 83, 3-(bis(2-((Z)-Octadec-9-enoyloxy)ethyl)amino)propan-1,2-diol] | 169.1 nm
CCCCCCCC/C=C\CCCCCCCC(=O)OC[C@@H]1C[N+](C)(C)C[C@H]1COC(=O)CCCCCCC/C=C\CCCCCCCC.[Cl-] (relative stereo) [Compound 113, trans-1,1-Dimethyl-3,4-bis(((Z)-octadec-9-enoyloxy)methyl)pyrrolidinium chloride] | 103.5 nm
CCCCCCCCCCCCCCCCCCOCCN(C)CCOCCCCCCCCCCCCCCCCCC [Compound 37, N-Methyl-N,N-bis(2-(octadecyloxy)ethyl)amine] | 151.3 nm
CCCCC/C=C\C/C=C\CCCCCCCCO[C@@H]1CNC[C@H]1OCCCCCCCC/C=C\C/C=C\CCCCC [Compound 1, (3R,4R)-3,4-bis((9Z,12Z)-Octadec-9,12-dienyloxy)pyrrolidine] | 137.4 nm
CCCCCCCC/C=C\CCCCCCCCOCCNCCOCCCCCCCC/C=C\CCCCCCCC [Compound 67, bis(2-((Z)-Octadec-9-enyloxy)ethyl)amine] | 127.6 nm
CCCCC/C=C\C/C=C\CCCCCCCCOCCN(C)CCOCCCCCCCC/C=C\C/C=C\CCCCC [Compound 32, N-Methyl-N,N-bis(2-((9Z,12Z)-octadec-9,12-dienyloxy)ethyl)amine] | 154.2 nm
CCCCCC/C=C\CCCCCCCCCCOCCN(C)CCOCCCCCCCCCC/C=C\CCCCCC [Compound 77, N-Methyl-N,N-bis(2-((Z)-octadec-11-enyloxy)ethyl)amine] | 119.7 nm
CCCCC/C=C\C/C=C\CCCCCCCC(=O)OC[C@@H]1C[N+](C)(C)C[C@H]1COC(=O)CCCCCCC/C=C\C/C=C\CCCCC.[Cl-] (relative stereo) [Compound 114, trans-1,1-Dimethyl-3,4-bis(((9Z,12Z)-octadec-9,12-dienoyloxy)methyl)pyrrolidinium chloride] | 108.2 nm
CCCCC/C=C\C/C=C\CCCCCCCC(=O)OCCN(CCOC(=O)CCCCCCC/C=C\C/C=C\CCCCC)C(=O)CN [Compound 96, 2-Amino-N,N-bis(2-((9Z,12Z)-octadec-9,12-dienoyloxy)ethyl)acetamide] | 133.2 nm
CCCCC/C=C\C/C=C\CCCCCCCCO[C@@H]1CN(C(=O)CN)C[C@H]1OCCCCCCCC/C=C\C/C=C\CCCCC [Compound 61, (3R,4R)-1-(2-Aminoacetyl)-3,4-bis((9Z,12Z)-octadec-9,12-dienyloxy)pyrrolidine] | 125.9 nm
CCCCC/C=C\C/C=C\CCCCCCCCO[C@@H]1CN(C(=O)CCN(C)C)C[C@H]1OCCCCCCCC/C=C\C/C=C\CCCCC [Compound 28, (3R,4R)-1-(3-(Dimethylamino)propanoyl)-3,4-bis((9Z,12Z)-octadec-9,12-dienyloxy)pyrrolidine] | 132.2 nm
CCCCCCCCCCCCCCO[C@@H]1CNC[C@H]1OCCCCCCCCCCCCCC [Compound 5, (3R,4R)-3,4-bis(Tetradecyloxy)pyrrolidine] | 154.2 nm
CCCCCCCC/C=C\CCCCCCCC(=O)OCCN(CCOC(=O)CCCCCCC/C=C\CCCCCCCC)C(=O)[C@@H](N)CCCCN [Compound 97, (S)-2,6-Diamino-N,N-bis(2-((Z)-octadec-9-enoyloxy)ethyl)hexanamido] | 133.0 nm
CCCCC/C=C\C/C=C\CCCCCCCCOC[C@@H]1CN(C)C[C@H]1COCCCCCCCC/C=C\C/C=C\CCCCC (relative stereo) [Compound 107, trans-1-Methyl-3,4-bis(((9Z,12Z)-octadec-9,12-dienyloxy)methyl)pyrrolidine] | 139.1 nm
CCCCCCCCCCC/C=C\CCCCCOCCN(C)CCOCCCCC/C=C\CCCCCCCCCCC [Compound 36, N-Methyl-N,N-bis(2-((Z)-octadec-6-enyloxy)ethyl)amine] | 137.2 nm
CCCCC/C=C\C/C=C\CCCCCCCCCCO[C@@H]1CN(C)C[C@H]1OCCCCCCCCCC/C=C\C/C=C\CCCCC [Compound 16, (3R,4R)-3,4-bis((11Z,14Z)-Icos-11,14-dienyloxy)-1-methylpyrrolidine] | 143.2 nm
CCCC/C=C\CCCCCCCCO[C@@H]1CNC[C@H]1OCCCCCCCC/C=C\CCCC [Compound 40, (3R,4R)-3,4-bis((Z)-Tetradec-9-enyloxy)pyrrolidine] | 133.8 nm
CCCCCCCC/C=C\CCCCCCCC(=O)O[C@@H]1CN(C(=O)CN(C)C)C[C@H]1OC(=O)CCCCCCC/C=C\CCCCCCCC [Compound 27, (3R,4R)-1-(2-(Dimethylamino)acetyl)pyrrolidine-3,4-diyl di((Z)-octadec-9-enoate)] | 135.2 nm
CCCCCCCC/C=C\CCCCCCCC(=O)OCCN(CCOC(=O)CCCCCCC/C=C\CCCCCCCC)C(=O)CCN(C)C [Compound 99, 3-(Dimethylamino)-N,N-bis(2-((Z)-octadec-9-enoyloxy)ethyl)propanamido] | 129.6 nm
CCCCC/C=C\C/C=C\CCCCCCCCO[C@@H]1CN(CC(C)O)C[C@H]1OCCCCCCCC/C=C\C/C=C\CCCCC (stereo partly drawn) [Compound 54, 1-((3R,4R)-3,4-bis((9Z,12Z)-Octadec-9,12-dienyloxy)pyrrolidine-1-yl)propan-2-ol] | 148.9 nm
CCCCC/C=C\C/C=C\CCCCCCCCCCOCCN(C)CCOCCCCCCCCCC/C=C\C/C=C\CCCCC [Compound 79, N,N-bis(2-((11Z,14Z)-Icos-11,14-dienyloxy)ethyl)-N-methylamine] | 116.5 nm
CCCCCCCC/C=C\CCCCCCCC(=O)OC[C@@H]1CN(C)C[C@H]1COC(=O)CCCCCCC/C=C\CCCCCCCC (relative stereo) [Compound 109, trans-1-Methyl-3,4-bis(((Z)-octadec-9-enoyloxy)methyl)pyrrolidine] | 129.6 nm
CCCCCCCC/C=C\CCCCCCCC(=O)OCCN(CCOC(=O)CCCCCCC/C=C\CCCCCCCC)C(=O)OCCCN(C)C [Compound 116, 3-(Dimethylamino)propyl bis(2-((Z)-1-oxooctadec-9-enyloxy)ethyl)carbamate] | 154.1 nm
CCCCCCCC/C=C\CCCCCCCCOCCN(CCOCCCCCCCC/C=C\CCCCCCCC)C(=O)[C@@H](N)CO [Compound 91, (S)-2-Amino-3-hydroxy-N,N-bis(2-((Z)-octadec-9-enyloxy)ethyl)propanamido] | 125.4 nm
CCCC/C=C\CCCCCCCCOCCNCCOCCCCCCCC/C=C\CCCC [Compound 68, bis(2-((Z)-Tetradec-9-enyloxy)ethyl)amine] | 132.4 nm
CCCCC/C=C\C/C=C\CCCCCCCCO[C@@H]1CN(C(=O)[C@@H](N)CCCN)C[C@H]1OCCCCCCCC/C=C\C/C=C\CCCCC [Compound 63, (3R,4R)-1-((S)-2,5-Diaminopentanoyl)-3,4-bis((9Z,12Z)-octadec-9,12-dienyloxy)pyrrolidine] | 143.0 nm
